Literature values as cited in patent publication US9168226B1, “Injectable particle” (priority 2015, dated 2015).
Values after ≈ are worked out from the molar mass of the structure shown. Like-named read-outs stand apart in the source and are kept apart here.

- aqueous solubility (pH 2.6): 18400 µg/mL (≈ 37.7 mM)
- aqueous solubility (pH 6.0): 8 µg/mL (≈ 0.0164 mM)
SMILES: Cc1nc(Nc2ncc(C(=O)Nc3c(C)cccc3Cl)s2)cc(N2CCN(CCO)CC2)n1 [dasatinib, Dasatinib]
